Measured values taken from patent US20230085307A1, “PYRIDAZINONE COMPOUND AND HERBICIDE” (NISSAN CHEMICAL CORPORATION, priority 2019, published 2023).

How the values were obtained:
chickweed [1] = assay: Test Example 5: herbicidal effect by foliage application, plastic box (Table 20, symbol P); format: in vivo, common chickweed (Stellaria media); details: evaluated three weeks after application
Summary of the method: (§1)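 Plants were sown into sterilized diluvial soil under about 1.5 cm cover and kept in a greenhouse at 25° C. to 30° C. Fourteen days on, foliage received an even spray of the diluted emulsion. Herbicidal or crop effect was judged three weeks afterwards.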

velvetleaf [2] = assay: Test Example 4: herbicidal effect by soil treatment (Table 19, symbol M); format: in vivo, velvetleaf (Abutilon theophrasti); details: amount of applied herbicide 320 g/ha
Summary of the method: (§2)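 Pre-emergence style soil spray: seeds under ~1.5 cm sterilized diluvial soil received a uniform coat of emulsion diluted to the predetermined herbicide amount. Greenhouse 25–30° C; readout at week three on previously defined criteria.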

Italian ryegrass [3] = assay: Test Example 5: herbicidal effect by foliage application, plastic box (Table 20, symbol K); format: in vivo, Italian ryegrass (Lolium multiflorum); details: evaluated three weeks after application
Summary of the method: as §1

wild oat [4] = assay: Test Example 4: herbicidal effect by soil treatment (Table 19, symbol I); format: in vivo, wild oat (Avena fatua); details: amount of applied herbicide 320 g/ha
Summary of the method: as §2

windgrass [5] = assay: Test Example 4: herbicidal effect by soil treatment (Table 19, symbol L); format: in vivo, windgrass (Apera spica-venti); details: amount of applied herbicide 320 g/ha
Summary of the method: as §2

velvetleaf [6] = assay: Test Example 5: herbicidal effect by foliage application, plastic box (Table 20, symbol M); format: in vivo, velvetleaf (Abutilon theophrasti); details: evaluated three weeks after application
Summary of the method: as §1

chickweed [7] = assay: Test Example 4: herbicidal effect by soil treatment (Table 19, symbol P); format: in vivo, common chickweed (Stellaria media); details: amount of applied herbicide 320 g/ha
Summary of the method: as §2

barnyard grass [8] = assay: Test Example 4: herbicidal effect by soil treatment (Table 19, symbol H); format: in vivo, barnyard grass (Echinochloa crus-galli); details: amount of applied herbicide 320 g/ha
Summary of the method: as §2

Chinese sprangletop = assay: Test Example 3: herbicidal effect by foliage application, Wagner pot (Table 18, symbol D); format: in vivo, chinese sprangletop (Leptochloa chinensis)
Summary of the method: (§3)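 Plants were sown in alluvial soil held under 0.1–0.5 cm standing water and grown 14 days in a greenhouse at 25–30 °C. An emulsifiable formulation, water-diluted to the set dose, was then sprayed onto the foliage, and effects were scored three weeks later using previously defined criteria.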

persian speedwell [9] = assay: Test Example 5: herbicidal effect by foliage application, plastic box (Table 20, symbol R); format: in vivo, Persian speedwell (Veronica persica); details: evaluated three weeks after application
Summary of the method: as §1

redroot pigweed [10] = assay: Test Example 4: herbicidal effect by soil treatment (Table 19, symbol N); format: in vivo, redroot pigweed (Amaranthus retroflexus); details: amount of applied herbicide 320 g/ha
Summary of the method: as §2

green foxtail [11] = assay: Test Example 5: herbicidal effect by foliage application, plastic box (Table 20, symbol G); format: in vivo, green foxtail (Setaria viridis); details: evaluated three weeks after application
Summary of the method: as §1

southern crabgrass [12] = assay: Test Example 5: herbicidal effect by foliage application, plastic box (Table 20, symbol F); format: in vivo, southern crabgrass (Digitaria ciliaris); details: evaluated three weeks after application
Summary of the method: as §1

barnyard grass [13] = assay: Test Example 5: herbicidal effect by foliage application, plastic box (Table 20, symbol H); format: in vivo, barnyard grass (Echinochloa crus-galli); details: evaluated three weeks after application
Summary of the method: as §1

barnyard grass [14] = assay: Test Example 3: herbicidal effect by foliage application, Wagner pot (Table 18, symbol H); format: in vivo, barnyard grass (Echinochloa crus-galli)
Summary of the method: as §3

redroot pigweed [15] = assay: Test Example 5: herbicidal effect by foliage application, plastic box (Table 20, symbol N); format: in vivo, redroot pigweed (Amaranthus retroflexus); details: evaluated three weeks after application
Summary of the method: as §1

southern crabgrass [16] = assay: Test Example 4: herbicidal effect by soil treatment (Table 19, symbol F); format: in vivo, southern crabgrass (Digitaria ciliaris); details: amount of applied herbicide 320 g/ha
Summary of the method: as §2

green foxtail [17] = assay: Test Example 4: herbicidal effect by soil treatment (Table 19, symbol G); format: in vivo, green foxtail (Setaria viridis); details: amount of applied herbicide 320 g/ha
Summary of the method: as §2

blackgrass [18] = assay: Test Example 5: herbicidal effect by foliage application, plastic box (Table 20, symbol J); format: in vivo, blackgrass (Alopecurus myosuroides); details: evaluated three weeks after application
Summary of the method: as §1

windgrass [19] = assay: Test Example 5: herbicidal effect by foliage application, plastic box (Table 20, symbol L); format: in vivo, windgrass (Apera spica-venti); details: evaluated three weeks after application
Summary of the method: as §1

wild oat [20] = assay: Test Example 5: herbicidal effect by foliage application, plastic box (Table 20, symbol I); format: in vivo, wild oat (Avena fatua); details: evaluated three weeks after application
Summary of the method: as §1

persian speedwell [21] = assay: Test Example 4: herbicidal effect by soil treatment (Table 19, symbol R); format: in vivo, Persian speedwell (Veronica persica); details: amount of applied herbicide 320 g/ha
Summary of the method: as §2

lambsquarters [22] = assay: Test Example 5: herbicidal effect by foliage application, plastic box (Table 20, symbol O); format: in vivo, lambsquarters (Chenopodium album); details: evaluated three weeks after application
Summary of the method: as §1

lambsquarters [23] = assay: Test Example 4: herbicidal effect by soil treatment (Table 19, symbol O); format: in vivo, lambsquarters (Chenopodium album); details: amount of applied herbicide 320 g/ha
Summary of the method: as §2

Italian ryegrass [24] = assay: Test Example 4: herbicidal effect by soil treatment (Table 19, symbol K); format: in vivo, Italian ryegrass (Lolium multiflorum); details: amount of applied herbicide 320 g/ha
Summary of the method: as §2

rice flat sedge = assay: Test Example 3: herbicidal effect by foliage application, Wagner pot (Table 18, symbol E); format: in vivo, rice flat sedge (Cyperus iria)
Summary of the method: as §3

blackgrass [25] = assay: Test Example 4: herbicidal effect by soil treatment (Table 19, symbol J); format: in vivo, blackgrass (Alopecurus myosuroides); details: amount of applied herbicide 320 g/ha
Summary of the method: as §2

[26] = amount of applied herbicide 320 g/ha
[27] = amount of applied herbicide 320 g/ha, foliage application after 14-day growth

## COCCOC(=O)Oc1c(C)nn(C)c(=O)c1-c1c(-c2ccc(F)cc2OC)sc2ccc(Cl)cc12 [2-114]
Chickweed [1]; foliage application, 320 g/ha
  herbicidal effect on P: chickweed: 5 (Herbicidal rate of 90% or more (almost completely withered))
Velvetleaf [2]
  M: velvetleaf, herbicidal effect rating: 0 (Herbicidal rate of 5% or less (almost no effect))
Italian ryegrass [3]; foliage application, 320 g/ha
  herbicidal effect on K: Italian ryegrass: 0 (Herbicidal rate of 5% or less (almost no effect))
Wild oat [4]
  I: wild oat, herbicidal effect rating: 0 (Herbicidal rate of 5% or less (almost no effect))
Windgrass [5]
  L: windgrass, herbicidal effect rating: 0 (Herbicidal rate of 5% or less (almost no effect))
Velvetleaf [6]; foliage application, 320 g/ha
  herbicidal effect on M: velvetleaf: 3 (Herbicidal rate of 40% or more and less than 70%)
Chickweed [7]
  P: chickweed, herbicidal effect rating: 4 (Herbicidal rate of 70% or more and less than 90%)
Barnyard grass [8]
  H: barnyard grass, herbicidal effect rating: 0 (Herbicidal rate of 5% or less (almost no effect))
Chinese sprangletop; [26]
  herbicidal effect on D: Chinese sprangletop: 3 (Herbicidal rate of 40% or more and less than 70%)
Persian speedwell [9]; foliage application, 320 g/ha
  herbicidal effect on R: persian speedwell: 3 (Herbicidal rate of 40% or more and less than 70%)
Redroot pigweed [10]
  N: redroot pigweed, herbicidal effect rating: 5 (Herbicidal rate of 90% or more (almost completely withered))
Green foxtail [11]; foliage application, 320 g/ha
  herbicidal effect on G: green foxtail: 1 (Herbicidal rate of 5% or more and less than 20%)
Southern crabgrass [12]; foliage application, 320 g/ha
  herbicidal effect on F: southern crabgrass: 0 (Herbicidal rate of 5% or less (almost no effect))
Barnyard grass [13]; foliage application, 320 g/ha
  herbicidal effect on H: barnyard grass: 3 (Herbicidal rate of 40% or more and less than 70%)
Barnyard grass [14]; [26]
  herbicidal effect on H: barnyard grass: 4 (Herbicidal rate of 70% or more and less than 90%)
Redroot pigweed [15]; foliage application, 320 g/ha
  herbicidal effect on N: redroot pigweed: 1 (Herbicidal rate of 5% or more and less than 20%)
Southern crabgrass [16]
  F: southern crabgrass, herbicidal effect rating: 0 (Herbicidal rate of 5% or less (almost no effect))
Green foxtail [17]
  G: green foxtail, herbicidal effect rating: 0 (Herbicidal rate of 5% or less (almost no effect))
Blackgrass [18]; foliage application, 320 g/ha
  herbicidal effect on J: blackgrass: 4 (Herbicidal rate of 70% or more and less than 90%)
Windgrass [19]; foliage application, 320 g/ha
  herbicidal effect on L: windgrass: 4 (Herbicidal rate of 70% or more and less than 90%)
Wild oat [20]; foliage application, 320 g/ha
  herbicidal effect on I: wild oat: 0 (Herbicidal rate of 5% or less (almost no effect))
Persian speedwell [21]
  R: persian speedwell, herbicidal effect rating: 0 (Herbicidal rate of 5% or less (almost no effect))
Lambsquarters [22]; foliage application, 320 g/ha
  herbicidal effect on O: lambsquarters: 3 (Herbicidal rate of 40% or more and less than 70%)
Lambsquarters [23]
  O: lambsquarters, herbicidal effect rating: 3 (Herbicidal rate of 40% or more and less than 70%)
Italian ryegrass [24]
  K: Italian ryegrass, herbicidal effect rating: 0 (Herbicidal rate of 5% or less (almost no effect))
Rice flat sedge; [26]
  herbicidal effect on E: rice flat sedge: 5 (Herbicidal rate of 90% or more (almost completely withered))

## COc1cc(F)ccc1-c1sc2cc(F)c(F)cc2c1-c1c(O)c(C)nn(C)c1=O [5-029]
Chickweed [1]; [27]
  Herbicidal effect by foliage application, P: chickweed: 5 (Herbicidal rate of 90% or more (almost completely withered))
Velvetleaf [2]
  M: velvetleaf, herbicidal effect grade: 3 (Herbicidal rate of 40% or more and less than 70%)
Italian ryegrass [3]; [27]
  Herbicidal effect by foliage application, K: Italian ryegrass: 4 (Herbicidal rate of 70% or more and less than 90%)
Wild oat [4]
  I: wild oat, herbicidal effect grade: 2 (Herbicidal rate of 20% or more and less than 40%)
Blackgrass [25]
  J: blackgrass, herbicidal effect grade: 4 (Herbicidal rate of 70% or more and less than 90%)
Velvetleaf [6]; [27]
  Herbicidal effect by foliage application, M: velvetleaf: 5 (Herbicidal rate of 90% or more (almost completely withered))
Chickweed [7]
  P: chickweed, herbicidal effect grade: 3 (Herbicidal rate of 40% or more and less than 70%)
Barnyard grass [8]
  H: barnyard grass, herbicidal effect grade: 0 (Herbicidal rate of 5% or less (almost no effect))
Chinese sprangletop; 320 g/ha
  herbicidal effect on Chinese sprangletop (D): 4 (Herbicidal rate of 70% or more and less than 90%)
Persian speedwell [9]; [27]
  Herbicidal effect by foliage application, R: persian speedwell: 5 (Herbicidal rate of 90% or more (almost completely withered))
Redroot pigweed [10]
  N: redroot pigweed, herbicidal effect grade: 5 (Herbicidal rate of 90% or more (almost completely withered))
Green foxtail [11]; [27]
  Herbicidal effect by foliage application, G: green foxtail: 5 (Herbicidal rate of 90% or more (almost completely withered))
Southern crabgrass [12]; [27]
  Herbicidal effect by foliage application, F: southern crabgrass: 3 (Herbicidal rate of 40% or more and less than 70%)
Barnyard grass [13]; [27]
  Herbicidal effect by foliage application, H: barnyard grass: 5 (Herbicidal rate of 90% or more (almost completely withered))
Barnyard grass [14]; 320 g/ha
  herbicidal effect on barnyard grass (H): 4 (Herbicidal rate of 70% or more and less than 90%)
Redroot pigweed [15]; [27]
  Herbicidal effect by foliage application, N: redroot pigweed: 5 (Herbicidal rate of 90% or more (almost completely withered))
Southern crabgrass [16]
  F: southern crabgrass, herbicidal effect grade: 0 (Herbicidal rate of 5% or less (almost no effect))
Green foxtail [17]
  G: green foxtail, herbicidal effect grade: 3 (Herbicidal rate of 40% or more and less than 70%)
Blackgrass [18]; [27]
  Herbicidal effect by foliage application, J: blackgrass: 4 (Herbicidal rate of 70% or more and less than 90%)
Windgrass [19]; [27]
  Herbicidal effect by foliage application, L: windgrass: 5 (Herbicidal rate of 90% or more (almost completely withered))
Wild oat [20]; [27]
  Herbicidal effect by foliage application, I: wild oat: 4 (Herbicidal rate of 70% or more and less than 90%)
Persian speedwell [21]
  R: persian speedwell, herbicidal effect grade: 3 (Herbicidal rate of 40% or more and less than 70%)
Lambsquarters [22]; [27]
  Herbicidal effect by foliage application, O: lambsquarters: 5 (Herbicidal rate of 90% or more (almost completely withered))
Lambsquarters [23]
  O: lambsquarters, herbicidal effect grade: 5 (Herbicidal rate of 90% or more (almost completely withered))
Italian ryegrass [24]
  K: Italian ryegrass, herbicidal effect grade: 1 (Herbicidal rate of 5% or more and less than 20%)
Rice flat sedge; 320 g/ha
  herbicidal effect on rice flat sedge (E): 5 (Herbicidal rate of 90% or more (almost completely withered))
